Legend:
[1] = test system: carrageenan-induced paw edoema; experiment: Carrageenan-induced rat paw edoema, paw swelling; assay type: in vivo; details: rats, i.p. 1 h before carrageenan; CLX 30 mg/kg, 4b 36 mg/kg, 4c 40 mg/kg; 1-5 h
Excerpt: The anti-inflammatory activity of the two selected compounds from the above screening, 4b and 4c was scrutinized in vivo using a paw edema model produced by carrageenan. Male Sprague Dawley rats (180–200 g) were obtained from Vacsera (Giza, Egypt) and maintained at rtunfettered access to food and water in a light-controlled space with a twelve-hour light/dark cycle. The research ethics committee at Mansoura University, Egypt examined and authorized the experiments (code number: 2022–78).
(§1) After overnight fasting, five groups of rats were randomly divided (n = 5). Group I (Control): injected only with the DMSO solution (1.2 ml/kg, i.p, 10% v/v of DMSO in sterile 0.9% saline solution). Group II (Carrageenan): injected with carrageenan [0.1 ml of a freshly prepared solution of carrageenan (1% w/v in sterile 0.9% saline solution) into the sub-plantar region of the right hind paw] and the DSMO solution. Group III (CLX): injected the standard drug CLX (30 mg/kg, i.p, 2.5% w/v in the DMSO solution). Group IV (4 b) injected the test drug 4 b (36 mg/kg, i.p, 2% w/v in the vehicle). Group V (4c): injected the test drug 4c (40 mg/kg, i.p, 2% w/v in the DMSO solution). The selected doses of 4 b and 4c were equimolar to 30 mg/kg CLX. One hour after treatments, edema caused by carrageenan injection as described above. A digital vernier caliper (Elora, Germany) was used to measure the thickness of the paw right prior to injection of carrageenan and thereafter at 1, 2, 3, 4, and 5 h.
The paw edoema (E%) and edoema inhibition rate (I%) were calculated as follow: E%=B−A/A×100,
A: paw thickness (mm) just before carrageenan injection and B: paw thickness (mm) at different time intervals after carrageenan injection: I%=Ec−Et/Ec×100,
Ec: mean paw edoema of the carrageenan group and Et is the paw odema of the tested groups.

[2] = test system: TNF-α; experiment: TNF-α level in paw tissue homogenate (ELISA); assay type: in vivo, rat; details: for TNF-α lowering effect compared with CLX: P < 0.01; for TNF-α paw tissue level compared to the carrageenan group: rat paw 5 h after carrageenan, CLX 30, 4b 36, 4c 40 mg/kg i.p., P < 0.001
Method: as §1
(§2) After five hours from carrageenan injection, the rats were euthanized using […] with removal of the inflamed paws. Tissues of rat hind-paw’s pad were collected, and 5-mm pieces were homogenised in iced phosphate buffer saline (pH 7.4) on ice. Next, the prepared homogenate was centrifuged (10,000 g, 15 min, 4 °C) and the obtained supernatant was collected for additional analysis. The remaining tissue was fixed in formalin (10% v/v) for 24 h after which it was inserted in paraffin wax.
(§3) Levels of prostaglandin E2 (PGE2) and tumour necrosis factor-alpha (TNF-α) were measured in paw tissue homogenate using ELISA kits (Cusabio Technology LLC, TX, United States) and as per the guidelines provided by the manufacturer.

[3] = test system: NF-κB; experiment: Immunohistochemistry of NF-κB p65 expression in paw tissue; assay type: in vivo; details: rat paw 5 h after carrageenan; CLX 30, 4b 36, 4c 40 mg/kg i.p.; significant (P < 0.05) only with CLX
Method: as §1, §2
(§4) Paraffinized tissue sections were dewaxed in xylene and mounted on slides then […] with hematoxylin-eosin (H&E) for histopathological evaluation of inflammation. Inflammation score from 0 to 5 was given as follows: 0,1,2,3,4, and 5 if there is no, mild, mild/moderate, moderate, moderate/severe, and severe inflammation, respectively.[48] […] Immunostained sections were scored as follows: 0,1, 2 and 3 if there is no, weak, moderate, and strong staining effect, respectively.[49]

[4] = molecular target: T1, COX-2 (Homo sapiens, UniProt P35354); experiment: In vitro COX-2 inhibition, colorimetric screening assay kit; details: for (SI) in vitro COX-2 selectivity index: COX-1 IC50/COX-2 IC50; for HillSlope (best-fit value), COX-2 inhibition / LogIC50 (best-fit value), COX-2 inhibition: supplementary dose-response curve
T1 sequence (P35354 18-604): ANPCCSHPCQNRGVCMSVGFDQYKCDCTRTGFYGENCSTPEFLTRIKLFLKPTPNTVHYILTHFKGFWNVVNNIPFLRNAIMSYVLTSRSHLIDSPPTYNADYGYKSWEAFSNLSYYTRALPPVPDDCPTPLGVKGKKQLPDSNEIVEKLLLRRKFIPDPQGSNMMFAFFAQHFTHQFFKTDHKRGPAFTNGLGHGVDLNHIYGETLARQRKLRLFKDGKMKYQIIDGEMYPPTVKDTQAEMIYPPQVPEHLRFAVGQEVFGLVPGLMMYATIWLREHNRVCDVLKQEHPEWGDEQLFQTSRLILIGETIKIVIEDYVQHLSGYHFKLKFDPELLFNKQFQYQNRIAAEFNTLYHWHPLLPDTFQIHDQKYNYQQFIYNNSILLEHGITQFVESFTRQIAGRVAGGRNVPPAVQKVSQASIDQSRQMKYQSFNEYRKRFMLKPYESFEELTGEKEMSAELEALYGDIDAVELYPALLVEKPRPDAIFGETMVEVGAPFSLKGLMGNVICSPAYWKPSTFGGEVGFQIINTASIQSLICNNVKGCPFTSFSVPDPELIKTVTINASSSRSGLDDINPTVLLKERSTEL
Method: (§5) This assay examined the inhibitory potency of the target structures towardboth COX isoforms via colorimetric screening assay kit (Cayman Chemical, MI, United States) based on the directions provided by the manufacturer. ELISA reader Thermo Scientific Multiskan® EX (Thermo scientific, United States) was used. […] Serial dilutions of CLX, as a reference standard, and tested compounds at concentrations of 1000, 300, 100, 30, 10, 3, 1, and 0.30 nM were used in the assay. IC50 of the tested compounds were determined using three different experiments. The selectivity (SI) of each ompound was measured using the COX-2/COX-1 ratio, which compares the IC50 of COX-2 and COX-1.

[5] = molecular target: T2, COX-1 (Ovis aries, UniProt P05979); experiment: In vitro COX-1 inhibition, colorimetric screening assay kit; details: for HillSlope (best-fit value), COX-1 inhibition / LogIC50 (best-fit value), COX-1 inhibition: supplementary dose-response curve
T2 sequence (P05979 25-600): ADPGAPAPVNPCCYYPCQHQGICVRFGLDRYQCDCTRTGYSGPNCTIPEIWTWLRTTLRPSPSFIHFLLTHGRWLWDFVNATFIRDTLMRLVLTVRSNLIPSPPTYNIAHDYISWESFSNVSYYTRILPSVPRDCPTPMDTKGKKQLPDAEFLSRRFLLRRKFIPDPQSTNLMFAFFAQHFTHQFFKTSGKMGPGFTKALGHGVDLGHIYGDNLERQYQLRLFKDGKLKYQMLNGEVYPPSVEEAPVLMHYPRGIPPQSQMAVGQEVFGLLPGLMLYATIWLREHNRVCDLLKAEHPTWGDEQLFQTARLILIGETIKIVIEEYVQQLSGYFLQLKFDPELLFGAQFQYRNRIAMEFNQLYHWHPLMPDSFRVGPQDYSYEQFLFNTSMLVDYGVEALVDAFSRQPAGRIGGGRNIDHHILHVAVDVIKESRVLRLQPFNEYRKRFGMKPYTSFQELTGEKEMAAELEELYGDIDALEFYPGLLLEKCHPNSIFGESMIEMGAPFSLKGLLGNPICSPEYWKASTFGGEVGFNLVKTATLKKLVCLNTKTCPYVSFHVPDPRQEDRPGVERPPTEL
Method: as §5

[6] = test system: PGE2; experiment: PGE2 level in paw tissue homogenate (ELISA); assay type: in vivo, rat; details: for PGE2 paw tissue level in comparison to the CLX group: P < 0.001; for PGE2 paw tissue level compared to the carrageenan group: rat paw 5 h after carrageenan, CLX 30, 4b 36, 4c 40 mg/kg i.p., P < 0.001, 0.05 and 0.001 respectively
Method: as §1, §2, §3

[7] = test system: nitric oxide (NO); experiment: NO content in paw tissue homogenate (colorimetric kit); assay type: in vivo, rat; details: for NO paw tissue content compared to CLX: P < 0.01
Method: as §1, §2
Contents of malondialdehyde (MDA) as a lipid peroxidation product, and nitric oxide (NO) as anitrosative product, were measured in paw tissue homogenate using colorimetric commercial kits (Biodiagnostic, Giza, Egypt) and as per the guidelines provided by the manufacturer.

[8] = test system: carrageenan-injected rat paw tissue; experiment: Histopathological (H&E) inflammation scoring of carrageenan-inflamed paw tissue; assay type: in vivo; details: rat paw 5 h after carrageenan; CLX 30, 4b 36, 4c 40 mg/kg i.p.; significant (P < 0.05) only with CLX
Method: as §1, §2, §4

[9] = test system: COX-2; experiment: Immunohistochemistry of COX-2 expression in paw tissue; assay type: in vivo; details: rat paw 5 h after carrageenan; CLX 30, 4b 36, 4c 40 mg/kg i.p.
Method: After overnight fasting, five groups of rats were randomly divided (n = 5). Group I (Control): injected only with the DMSO solution (1.2 ml/kg, i.p, 10% v/v of DMSO in sterile 0.9% saline solution). Group II (Carrageenan): injected with carrageenan [0.1 ml of a freshly prepared solution of carrageenan (1% w/v in sterile 0.9% saline solution) into the sub-plantar region of the right hind paw] and the DSMO solution. […] One hour after treatments, edema caused by carrageenan injection as described above. A digital vernier caliper (Elora, Germany) was used to measure the thickness of the paw right prior to injection of carrageenan and thereafter at 1, 2, 3, 4, and 5 h.
After five hours from carrageenan injection, the rats were euthanized using surgical dislocation with removal of the inflamed paws. Tissues of rat hind-paw’s pad were collected, and 5-mm pieces were homogenised in iced phosphate buffer saline (pH 7.4) on ice. […]
The other set of sections were immunostained to examine expression levels of COX-2 and nuclear factor kappa B (NF-κB p65) using monoclonal antibodies (Thermo Fisher Scientific, MA, United States) and as per the guidelines provided by the manufacturer. Immunostained sections were scored as follows: 0,1, 2 and 3 if there is no, weak, moderate, and strong staining effect, respectively.[49]

[10] = parameters: method as in PMID 29426771, PMID 11600237, PMID 33266208, PMID 19084415, PMID 35423143; details: Figure 1; cited from earlier work
[11] = test system: COX-2; details: printed in Figure 1, comparator of an unlabelled compound; cited from earlier work

Row | Structure (SMILES) | percentage of paw swelling compared to the carrageenan group [1] | TNF-α lowering effect compared with CLX [2] | TNF-α paw tissue level compared to the carrageenan group [2] | melting point | NF-κB positive expression score compared to the carrageenan group [3] | IC50 [4] | (SI) in vitro COX-2 selectivity index [4] | HillSlope (best-fit value), COX-2 inhibition [4] | LogIC50 (best-fit value), COX-2 inhibition [4] | IC50 [5] | HillSlope (best-fit value), COX-1 inhibition [5] | LogIC50 (best-fit value), COX-1 inhibition [5] | PGE2 paw tissue level in comparison to the CLX group [6] | PGE2 paw tissue level compared to the carrageenan group [6] | NO paw tissue content compared to CLX [7] | semi-quantitative inflammation score (H&E) compared to the carrageenan group [8] | COX-2 positive expression score compared to the carrageenan group [9] | also measured
1 | Cc1c(NC(=O)CSc2nnc(-c3ccc(Cl)cc3)o2)c(=O)n(-c2ccccc2)n1C [4b, 2-((5–(4-Chlorophenyl)-1,3,4-oxadiazol-2-yl)thio)-N-(1,5-dimethyl-3-oxo-2-phenyl-2,3-dihydro-1H-pyrazol-4-yl)acetamide] | marked lower percentages of paw swelling | higher | decrease | 190 to 192 °C | decreased | 53.8 ± 2.05 nM | 4.44 | -0.2859 | 1.730 Log (nM) | 238.5 ± 2.08 nM | -0.4124 | 2.378 Log (nM) | higher levels | reduced | higher | decreased | decreased | 
2 | Cc1c(NC(=O)CSc2nnc(-c3ccc(Br)cc3)o2)c(=O)n(-c2ccccc2)n1C [4c, 2-((5–(4-Bromophenyl)-1,3,4-oxadiazol-2-yl)thio)-N-(1,5-dimethyl-3-oxo-2-phenyl-2,3-dihydro-1H-pyrazol-4-yl)acetamide] | marked lower percentages of paw swelling | higher | decrease | 173 to 175 °C | decreased | 69.8 ± 2.14 nM | 1.86 | -0.3652 | 1.844 Log (nM) | 130 ± 2.3 nM | -0.4106 | 2.112 Log (nM) | higher levels | reduced | lower | decreased | decreased | PGE2 paw tissue level compared to the 4b group ([6]; P < 0.05): lower; NO paw tissue content compared to 4 b ([7]; P < 0.05): lower
3 | Cc1ccc(-c2cc(C(F)(F)F)nn2-c2ccc(S(N)(=O)=O)cc2)cc1 [Celecoxib, reference compound] | marked lower percentages of paw swelling |  | decrease |  | decreased |  |  |  |  |  |  |  |  | reduced |  | decreased |  | 
4 | CC(=O)Nc1nnc(SCC(=O)Nc2c(C)n(C)n(-c3ccccc3)c2=O)s1 [Compound A] |  |  |  |  |  |  |  |  |  |  |  |  |  |  |  |  |  | more active than diclofenac Na as antiinflammatory [10]: 46%
5 | Cc1cnc(NC(=O)C2=C(O)c3ccccc3S(=O)(=O)N2C)s1 [Meloxicam] |  |  |  |  |  |  |  |  |  |  |  |  |  |  |  |  |  | % inhibition against COX-2 [11]: 44.95%

Reference: article PMC9848286, “Design, synthesis, and biological investigation of oxadiazolyl, thiadiazolyl, and pyrimidinyl linked antipyrine derivatives as potential non-acidic anti-inflammatory agents” (Journal of Enzyme Inhibition and Medicinal Chemistry, 2023)
